Laboratory results from patent publication US10703698B2, “Compounds which activate estrogen receptors and compositions and methods of using the same” (The Board of Trustees of the University of Illinois, priority 2016, dated 2020).
“Also recorded” adds a separate entry of the source.

Experiments:
[1] = system: ovariectomized C57BL/6 mice; test: ovariectomized mice: uterus, thymus and mammary gland effects
[2] = system: ovariectomized C57BL/6 mice; test: stroke model, transient middle cerebral artery occlusion (tMCAo)
ovariectomized mice = test: carotid artery reendothelialization after perivascular electric injury; assay type: in vivo
Protocol: Carotid artery reendothelialization was studied following perivascular electric injury in mice by assessing Evans blue dye uptake 72 h after injury. Endothelial denudation and recovery after injury in this model have been confirmed by immunohistochemistry for von Willebrand Factor. […] Carotid artery denudation was performed 21d later. In select studies additional treatments included subcutaneous injections of vehicle or ICI 182,780 (360 μg/mouse) administered 3d prior to carotid injury and on the day of injury. At the end of the study, uteri were also harvested and weighed.

MCF-7 cells [3] = test: RNA-Seq transcriptional profiling of MCF-7 cells; assay type: cell-based, human; details: for number of genes regulated: 10 nM E2 or 1 μM PaPE-1
Protocol: For gene expression analysis, total RNA was extracted from 3 biological replicates for each ligand treatment using Trizol reagent and further cleaned using the RNAeasy kit (QIAGEN). […] Once the sample quality and replicate reproducibility were verified, 2 samples from each group were subjected to sequencing. RNA at a concentration of 100 ng/μL in nuclease-free water was used for library construction. cDNA libraries were prepared with the mRNA-TruSeq Kit (Illumina, Inc.). Briefly, the poly-A containing mRNA was purified from total RNA, RNA was fragmented, double-stranded cDNA was generated from fragmented RNA, and adapters were ligated to the ends.
The paired-end read data from the HiSeq 2000 were processed and analyzed through a series of steps. Base calling and de-multiplexing of samples within each lane were done with Casava 1.8.2. FASTQ files were trimmed using FASTQ Trimmer (version 1.0.0). TopHat2 (version 0.5) was employed to map paired RNA-Seq reads to version hg19 of the Homo sapiens reference genome in the UCSC genome browser in conjunction with the RefSeq genome reference annotation. Gene expression values (raw read counts) from BAM files were calculated using StrandNGS (version 2.1) Quantification tool. Partial reads were considered and option of detecting novel genes and exons was selected. Default parameters for finding novel exons and genes were specified. DESeq normalization algorithm using default values was selected. Differentially expressed genes were then determined by fold-change and p-value with Benjamini and Hochberg multiple test correction for each gene for each treatment relative to the vehicle control. Genes with fold-change >2 and p-value <0.05 were considered as statistically significant, differentially expressed. All RNA-Seq datasets have been deposited with the NCBI under GEO accession number GSE73663.

LRRC54 gene = test: LRRC54 (non-genomic gene) mRNA expression, qPCR; details: MCF-7 cells, 1 μM ICI pretreatment, 1 μM PaPE-1
eNOS = eNOS activation in primary endothelial cells (14C-L-arginine to 14C-L-citrulline); assay type: cell-based, bovine; details: 1 μM ICI 182,780; listed as ICI
MCF-7 cells [4] = test: MCF-7 proliferation in serum from obese individuals or standard culture; details: 1 μM, six days
MCF-7 cells [5] = test: oleic acid (OA)-induced MCF-7 cell proliferation, WST1; details: for OA-induced MCF-7 cell proliferation with added agent: 100 nM OA, agent 1 μM, 6 days
MCF-7 cells [6] = test: RNA-Seq of MCF-7 cells treated with OA with and without PaPE-1; assay type: cell-based, human; details: 100 nM OA, 24 h
Protocol: FIG. 38. Identification of genes induced by OA and PaPE-1's effect on the gene regulation. (A) RNA-Seq analysis of gene expression changes induced by OA and OA+PaPE1. Heat map of the genes with significant changed expression. MCF-7 cells were treated with Veh or 100 nM OA with and without 1 μM PaPE-1 for 24 h. RNA was isolated and RNA-Seq was performed using 2 samples from each treatment group. Differentially regulated genes were determined with p<0.05 and expression fold change >2. (B) Clusters from A. regulated by OA and reversed by PaPE-1. The average gene expression level of the cluster1 (C1) and 2 (C2) identified as PaPE-1 regulated high-fat genes. In C1, there are 425 genes whose expression were found stimulated in OA but not in the OA+PaPE-1 treatment. In C2, there are 646 genes whose expression were found suppressed in the OA but restored by OA+PaPE-1 treatment. (C) Venn diagram analysis. […] (D) Examples of OA-regulated genes. Some of the top functions of the involved genes are presented.

[7] = system: ERα recruitment to chromatin; test: ERα ChIP-Seq of MCF-7 cells treated with OA with or without PaPE-1; assay type: cell-based, human; details: 100 nM OA, 45 minutes
Protocol: FIG. 39. ERα chromatin binding sites induced by OA and the effect of PaPE-1 in reversing these changes in the ERα cistrome. (A) Recruitment of ERα to chromatin in the presence of PaPE-1, OA and OA+PaPE-1. MCF-7 cells were treated with Veh and 100 nM OA with or without 1 μM PaPE-1 for 45 minutes. ERα-DNA complexes were pulled down using ERα antibodies. Three biological replicates were pooled and sequenced. Clustering of ERα binding sites in treatments of Veh (0.1% EtOH), PaPE-1 (1 μM), OA (100 nM), and OA (100 nM)+PaPE-1 (1 t.M) was done using seqMINER software. (B) Validation of effect of OA and PaPE-1 on the ERα binding at regulatory region of PgR, CISH and SREBP1C using ChIP-qPCR. MCF-7 cells were treated with Veh and 100 nM OA with or without 1 μM PaPE-1 for 45 minutes. ERα-DNA complexes were pulled down using ERα antibodies. Recruitment of ERα to PgR (chr11:100,904,522-100,905,458), CISH (chr3:50,642,336-50,643,191) and SREBP1 (chr17:17,743,329-17,743,912) sites were quantified by Q-PCR. The experiment was repeated 3 times with at least duplicates each time. Mean±SEM is plotted. […] Mean±SEM is plotted. (C) Binding sites whose ERα occupation increased upon OA treatment (cluster marked by * in B). The ERα binding sites were separated into four clusters of characteristic patterns: C1, C2, C3 and C4. […]

mTOR pathway = test: OA-induced mTOR pathway activation in MCF-7 cells, western blot; details: 100 nM OA, time course
PgR gene = test: PgR (genomic gene) mRNA expression, qPCR; details: MCF-7 cells; 1 μM PaPE or 10 nM E2 for 4 h where stated; versus vehicle or E2
ERα-SRC3 interaction = test: tr-FRET assay of SRC3 coactivator binding to ERα; assay type: biochemical; details: 10 nM E2-ERα complex
From the text: Using a time-resolved Forster resonance energy transfer (tr-FRET) assay, the binding of the steroid receptor coactivator 3 (SRC3) to ERu was monitored.

LRRC54 gene vs PgR gene = test: preferential activation of non-genomic (LRRC54) over genomic (PgR) gene; details: relative to activation by E2

C[C@]12CC[C@@H]3c4ccc(O)cc4CC[C@H]3[C@@H]1CC[C@@H]2O [Compound E2, estradiol, reference compound]
mammary gland ductal morphology ([1]; 3 weeks): elicited marked ductal growth | uterine weight ([1]; E2 5 μg/day, PaPE up to 300 μg/day): very effective in increasing growth of the uterus; also recorded: markedly increased | reduction of leukocytes infiltrated in the brain ([2]; 3 days post-stroke): 63% | uterine wet weight ([2]; compared with vehicle): caused an increase in uterine wet weight | uterine weight in reendothelialization study (ovariectomized mice; mouse, in vivo): greatly elevated; also recorded: increases uterine weight | regulated genes blocked by MAPK inhibitor AZD6244 (MCF-7 cells [3]; 1 μM AZD6244, 4 h): 23% | regulated genes blocked by mTOR pathway inhibitor PP242 (MCF-7 cells [3]; 1 μM PP242, 4 h): 40% | number of genes regulated (MCF-7 cells [3]; 4 h): ~1500 genes | number of genes regulated (MCF-7 cells [3]; 24 h): about 3000 genes

C[C@]12CC[C@@H]3c4ccc(O)cc4C[C@@H](CCCCCCCCC[S+]([O-])CCCC(F)(F)C(F)(F)F)[C@H]3[C@@H]1CC[C@@H]2O (stereo partly shown) [ICI 182,780, Fulvestrant]
activation of LRRC54 gene expression by PaPE-1 in presence of antiestrogen (LRRC54 gene): blocked | eNOS / NOS stimulation by E2 and PaPEs with antiestrogen (eNOS): fully attenuated; also recorded: fully blocked | inhibition of MCF-7 proliferation in normal cell culture conditions (MCF-7 cells [4]): better agents | endothelial repair responses elicited by E2 and PaPE-1 with antiestrogen (ovariectomized mice; ICI 182,780 360 μg/mouse): fully prevented | uterine stimulation by E2 with antiestrogen (ovariectomized mice; mouse, in vivo): blocked uterine stimulation by E2 | OA-induced MCF-7 cell proliferation with added agent (MCF-7 cells [5]): blocked OA-induced cell proliferation; also recorded: suppressed

CCCCCCCC/C=C\CCCCCCCC(=O)O [OA, oleic acid]
genes downregulated by OA (MCF-7 cells [6]): about 500 genes | genes upregulated by OA (MCF-7 cells [6]): about 350 genes | ERα recruitment to chromatin upon OA [7]: recruited to novel chromatin sites upon OA treatment | MCF-7 cell proliferation with free fatty acid (MCF-7 cells [5]; 1 and 100 nM): very efficient in increasing cell proliferation in MCF-7 cells | mTOR pathway activation by OA (mTOR pathway): robust activation of mTOR pathway downstream targets Akt, S6 and 4EBP1

CC/C(=C(\c1ccc(O)cc1)c1ccc(OCCN(C)C)cc1)c1ccccc1 [OH-Tam, trans-hydroxytamoxifen, reference compound]
inhibition of MCF-7 proliferation in normal cell culture conditions (MCF-7 cells [4]): better agents | PgR (genomic gene) mRNA expression, in words (PgR gene): slight stimulation of the PgR gene | reversal of the E2-promoted ER-SRC3 interaction (ERα-SRC3 interaction): reversed the ER-SRC3 interaction promoted by E2 | preference for activation of the non-genomic pathway (LRRC54 over PgR), in words (LRRC54 gene vs PgR gene): Neither Raloxifene (RAL) nor hydroxytamoxifen (TOT) show selective activation of the non-genomic gene LRRC54 | OA-induced MCF-7 cell proliferation with added agent (MCF-7 cells [5]; listed as 4-OH-Tamoxifen): blocked OA-induced cell proliferation; also recorded: suppressed
